# Where a name gives a salt, the structure may show the parent alone.
row,Compound,melting point
1,"Cc1cc(I)ccc1Nc1ccc(Cl)cc1C1=NC(C)(C)CO1 (as salt: salt) [Example 1, [4-Chloro-2-(4,4-Dimethyl-4,5-dihydro-oxazol-2-yl)-phenyl]-(4-iodo-2-methyl-phenyl)-amine]",324 to 330 °C
2,"Cc1cc(I)ccc1Nc1c(-c2nnco2)ccc(F)c1F [Example 9, (2,3-Difluoro-6-[1,3,4]oxadiazol-2-yl-phenyl)-(4-iodo-2-methyl-phenyl)-amine]",144.4 to 145.5 °C
3,"Cc1cc(I)ccc1Nc1c(-c2nnc(S)o2)ccc(F)c1F [Example 10, 5-[3,4-Difluoro-2-(4-iodo-2-methyl-phenylamino)-phenyl]-[1,3,4]oxadiazole-2-thiol]",231.8 to 232.8 °C
